Columns and labels:
Test in all cases: relative viability (nuclei count vs DMSO), 5 days (fraction); higher = more cells survive
[1] = compound: CC1=CC(=CC=C1)NC2=NC(=CS2)C3=CC=NC=C3 + Nc1nc2[nH]cc(CCc3ccc(C(=O)N[C@@H](CCC(=O)O)C(=O)O)cc3)c2c(=O)[nH]1 [Pemetrexed] (partner 0.2 µM)
Method in brief: (§1)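 A single step with final 0.05% Triton X-100, 1% formaldehyde and 1 ug/ml Hoechst fixed the cells and stained nuclei 5 days after treatment. Lung cancer cell lines in 1536-well plates had been treated by pin tool the day after seeding with one drug alone or a fixed anchor-drug dose plus five library-drug doses (not always all listed) in √10 steps, and nuclei were counted on 4× images. Relative viability is the ratio of nuclei in treated wells to nuclei in vehicle wells, taken as the median of duplicate plates.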

[2] = compound: Cc1ccc(NC(=O)c2ccc(CN3CCN(C)CC3)cc2)cc1Nc1nc(-c2cccnc2)cs1 [Masitinib] + COc1cc2c(Oc3ccc(NC(=O)C4(C(=O)Nc5ccc(F)cc5)CC4)cc3F)ccnc2cc1OCCCN1CCOCC1 [Foretinib] (partner 0.25 µM)
Method in brief: as §1

[3] = compound: Cc1ccc(NC(=O)c2ccc(CN3CCN(C)CC3)cc2)cc1Nc1nc(-c2cccnc2)cs1 [Masitinib] + Nc1nc2[nH]cc(CCc3ccc(C(=O)N[C@@H](CCC(=O)O)C(=O)O)cc3)c2c(=O)[nH]1 [Pemetrexed] (partner 0.2 µM)
Method in brief: as §1

[4] = compound: Cc1ccc(NC(=O)c2ccc(CN3CCN(C)CC3)cc2)cc1Nc1nc(-c2cccnc2)cs1 [Masitinib] + CC(=O)Nc1cccc(-n2c(=O)n(C3CC3)c(=O)c3c(Nc4ccc(I)cc4F)n(C)c(=O)c(C)c32)c1 [Trametinib] (partner 0.02 µM)
Method in brief: as §1

Row | Cell Line | relative viability ([1]; first compound 0.08 µM) | relative viability ([1]; first compound 0.253 µM) | relative viability ([1]; first compound 0.8 µM) | relative viability ([1]; first compound 2.53 µM) | relative viability ([1]; first compound 8 µM) | relative viability ([2]; first compound 0.01 µM) | relative viability ([2]; first compound 0.03162 µM) | relative viability ([2]; first compound 0.1 µM) | relative viability ([2]; first compound 0.3162 µM) | relative viability ([2]; first compound 1 µM) | relative viability ([3]; first compound 0.01 µM) | relative viability ([3]; first compound 0.03162 µM) | relative viability ([3]; first compound 0.1 µM) | relative viability ([3]; first compound 0.3162 µM) | relative viability ([3]; first compound 1 µM) | relative viability ([4]; first compound 0.01 µM) | relative viability ([4]; first compound 0.03162 µM) | relative viability ([4]; first compound 0.1 µM) | relative viability ([4]; first compound 0.3162 µM) | relative viability ([4]; first compound 1 µM)
1 | COR-L23 | 0.184 | 0.194 | 0.201 | 0.189 | 0.184 | 0.935 | 1.05 | 1.1 | 1.02 | 0.92 | 0.214 | 0.227 | 0.194 | 0.205 | 0.196 | 0.543 | 0.641 | 0.673 | 0.686 | 0.571
2 | COR-L 105 | 1.01 | 0.903 | 0.898 | 1.02 | 0.797 | 1.01 | 0.906 | 1.06 | 0.901 | 0.726 | 1.04 | 1.09 | 1.1 | 0.989 | 0.997 | 0.475 | 0.438 | 0.413 | 0.411 | 0.388
3 | LK-2 |  | 0.315 | 0.263 | 0.135 | 0.347 | 1.19 | 1.3 | 1.4 | 1.13 | 1.22 | 0.291 | 0.34 | 0.31 | 0.281 | 0.217 | 0.743 | 0.783 | 0.828 | 0.728 | 0.748
4 | 201T | 0.339 | 0.293 | 0.321 | 0.301 | 0.334 | 0.89 | 1.21 | 1.02 |  | 1.11 | 0.309 | 0.343 | 0.319 | 0.347 | 0.345 | 0.599 | 0.712 | 0.628 | 0.745 | 0.719
5 | NCI-H647 | 0.181 | 0.154 | 0.147 | 0.167 | 0.151 | 1.34 | 1.19 | 1.46 | 1.04 | 1.19 | 0.166 | 0.178 | 0.174 | 0.185 | 0.164 | 0.45 | 0.381 | 0.435 | 0.364 | 0.411
6 | H3255 | 0.585 | 0.546 | 0.568 | 0.54 | 0.54 | 0.745 | 0.922 | 0.648 | 0.934 | 0.748 | 0.57 | 0.59 | 0.583 | 0.54 | 0.573 | 0.471 | 0.619 | 0.499 | 0.565 | 0.582
7 | NCI-H650 | 0.953 | 0.88 | 1.07 | 0.863 | 1.06 | 0.978 | 0.966 | 1.14 | 0.977 | 1.01 | 0.857 | 0.832 | 1.04 | 1.01 | 0.99 | 1.05 | 1.1 | 1.03 | 1.28 | 0.99
8 | NCI-H2085 | 0.774 | 0.943 | 0.84 | 0.806 | 0.711 | 0.851 | 0.91 | 0.919 | 1.23 | 0.878 | 0.976 | 0.936 | 1.01 | 0.992 | 0.844 | 0.583 | 0.534 | 0.556 | 0.514 | 0.524

Reference: the supplement of paper PMC10307832
